Measurements as given in patent US5238838A (Degussa Aktiengesellschaft, priority 1991, dated 1993).
Several values for one entry are separate records, joined by “and”; a condition that tells them apart may be missing. Identical values can stand only once. Entries after “also recorded” stand apart in the source; their conditions may differ. Counter-ions that a name gives are not always drawn. Like-named read-outs stand apart in the source and are kept apart here.

What was measured:
[1] = tested on: L-carnitine amidase;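 also: additives put into the enzyme mixture before substrate, reaction then initiated by substrate addition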
Procedure: In order to test the influence of various additives on the enzyme activity, they were added to the test batches without substrate in a final concentration of 1 mM and 10 mM in each instance. The reaction batches were first incubated for 45 min. at 30° C. before the reaction was started by adding substrate solution.

[2] = tested on: L-carnitine amidase; assay: Test for the induction of L-carnitine amidase; type: cell-based, strain DSM 6230; settings: for Activity (mU/mg) / Activity (mU/ml): 5 g/l of the substance as inductor, 36 h, L-carnitine amide as substrate; for Induction of L-carnitine amidase (in words): strain DSM 6230
Procedure: (§1) In this test, various substances were examined for their induction action. At the same time, the growth on these compounds was followed. The medium used was a minimum medium with 1.0 g/l instead of 0.5 g/l yeast extract, to which 5 g/l of the substance to be tested were added in each instance. The culture without inductor contained 5 g/l yeast extract. All tests were carried out with 20 ml shaking cultures which were incubated 36 h at 30° C. and 120 rpms in a rotating [round]shaking machine. These cultures were inoculated with 1% of an initial culture of strain DSM 6230. L-carnitine amide was used as substrate for the enzyme test.
(§2) At the same time, the growth of the bacteria was followed in these carnitine amide concentrations. The culture conditions corresponded to those in example 3.

[3] = tested on: strain DSM 6230; assay: Growth of strain DSM 6230 on the test substances (OD660); type: cell-based; settings: for OD660: 5 g/l of the substance in minimum medium with 1.0 g/l yeast extract, 36 h, 30° C.; for Growth of the strain on the substance (in words): strain DSM 6230
Procedure: 1367 strains were isolated during the screening program. These strains were incubated in 100 ml Erlenmeyer flasks containing 20 ml of the particular enrichment medium in a rotary agitator at 30° C. and 120 rpms. The optical density at 660 nm was taken as an indication for the cell growth.
as §1, §2

[4] = additive 1 mM, 45 min. preincubation at 30° C.
[5] = additive 10 mM, 45 min. preincubation at 30° C.
[6] = carnitine amide concentration 0.5 g/l
[7] = carnitine amide concentration 1.0 g/l
[8] = carnitine amide concentration 2.0 g/l
[9] = carnitine amide concentration 3.0 g/l
[10] = carnitine amide concentration 5.0 g/l
[11] = carnitine amide concentration 10.0 g/l
[12] = carnitine amide concentration 15.0 g/l
[13] = carnitine amide concentration 20.0 g/l
[14] = carnitine amide concentration 25.0 g/l

SMILES: Cc1ccc(S(=O)(=O)N[C@@H](CCCCN)C(=O)CCl)cc1 [Na-tosyl-L-lysyl-chloromethane hydrochloride]
- Enzyme activity (%) [1, 4]: 84%
- Enzyme activity (%) [1, 5]: 73%
- Reduction of the enzyme activity (in words) ([1]; concentration of 10 mM): reduction of the enzyme activity

SMILES: [N-]=[N+]=[N-].[Na+] [NaN3]
- Enzyme activity (%) [1, 4]: 85%
- Enzyme activity (%) [1, 5]: 82%

SMILES: c1cnc2c(c1)ccc1cccnc12 [Phenanthroline]
- Enzyme activity (%) [1, 4]: 89%
- Enzyme activity (%) [1, 5]: 82%

SMILES: CCN1C(=O)C=CC1=O [Ethyl maleinimide]
- Enzyme activity (%) [1]: 99%
- Enzyme activity (%) [1, 4]: 100%

SMILES: O=C(O)CI [Iodoacetate]
- Enzyme activity (%) [1]: 97% and 72%
- Reduction of the enzyme activity (in words) [1]: reduction of the enzyme activity

SMILES: [Cl][Fe][Cl] [FeCl2]
- Enzyme activity (%) [1, 4]: 86%
- Enzyme activity (%) [1, 5]: 57%

SMILES: OCCS [2-mercaptoethanol]
- Enzyme activity (%) [1, 4]: 100%
- Enzyme activity (%) [1, 5]: 101%

SMILES: CN(C)C(=O)Oc1cccc([N+](C)(C)C)c1 [Neostigmine bromide]
- Enzyme activity (%) [1, 4]: 100%
- Enzyme activity (%) [1, 5]: 94%

SMILES: O=S(=O)(F)Cc1ccccc1 [Phenylmethane sulfonylfluoride (PMSF), Phenylmethane sulfonylfluoride]
- Enzyme activity (%) [1, 4]: 23%
- Enzyme activity (%) [1, 5]: 2%

SMILES: C[N+](C)(C)CCCC(=O)[O-] [butyrobetaine, γ-butyrobetaine]
- Activity (mU/mg) [2]: 566 mU/mg
- Activity (mU/ml) [2]: 963 mU/ml
- Induction of L-carnitine amidase (in words) [2]: induced; also recorded: Inductors; also recorded: induce the enzyme
- OD660 [3]: 0.7
- Growth of the strain on the substance (in words) [3]: can not be metabolized or are metabolized very poorly

SMILES: [Ca+2].[Cl-].[Cl-] [CaCl2]
- Enzyme activity (%) [1, 4]: 103%
- Enzyme activity (%) [1, 5]: 90%

SMILES: N[C@@H]1CON=C1O [Cycloserine]
- Enzyme activity (%) [1, 4]: 96%
- Enzyme activity (%) [1, 5]: 97%

SMILES: CCC(CC)(C(=O)O)C(=O)O [Diethyl malonic acid]
- Enzyme activity (%) [1, 4]: 92%
- Enzyme activity (%) [1, 5]: 68%
- Reduction of the enzyme activity (in words) ([1]; concentration of 10 mM): reduction of the enzyme activity

SMILES: [F-].[Na+] [NaF]
- Enzyme activity (%) [1, 4]: 88%
- Enzyme activity (%) [1, 5]: 78%
- Reduction of the enzyme activity (in words) ([1]; concentration of 10 mM): reduction of the enzyme activity

SMILES: [Cl][Ni][Cl] [NiCl2]
- Enzyme activity (%) [1, 4]: 80%
- Enzyme activity (%) [1, 5]: 79%

SMILES: O=C(O)c1cc[c]([Hg][OH])cc1 [Para-hydroxymercuribenzoate]
- Enzyme activity (%) [1, 4]: 51%

SMILES: C[N+](C)(C)CC(O)CC(N)=O (racemic) [DL-carnitine amide]
- Activity (mU/mg) [2]: 1673 mU/mg
- Activity (mU/ml) [2]: 8867 mU/ml
- amidase activity (U/ml) [2, 6]: 0.7 U/ml
- amidase activity (U/ml) [2, 7]: 2.4 U/ml
- amidase activity (U/ml) [2, 8]: 6.1 U/ml
- amidase activity (U/ml) [2, 9]: 7.3 U/ml
- amidase activity (U/ml) [2, 10]: 8.9 U/ml
- amidase activity (U/ml) [2, 11]: 8.6 U/ml
- amidase activity (U/ml) [2, 12]: 7.3 U/ml
- amidase activity (U/ml) [2, 13]: 7.1 U/ml
- amidase activity (U/ml) [2, 14]: 6.7 U/ml
- OD660 [3]: 2.7
- OD660 nm [3, 6]: 1.1
- OD660 nm [3, 7]: 1.3
- OD660 nm [3, 8]: 1.7
- OD660 nm [3, 9]: 2.0
- OD660 nm [3, 10]: 2.8
- OD660 nm [3, 11]: 3.9
- OD660 nm [3, 12]: 3.7
- OD660 nm [3, 13]: 3.6
- OD660 nm [3, 14]: 3.5
- Growth of the strain on the substance (in words) [3]: Good growth

SMILES: C[N+](C)(C)CC(O)CC#N (racemic) [DL-carnitine nitrile]
- Activity (mU/mg) [2]: 88 mU/mg
- Activity (mU/ml) [2]: 221 mU/ml
- OD660 [3]: 0.8

SMILES: [Ba+2].[Cl-].[Cl-] [BaCl2]
- Enzyme activity (%) [1, 4]: 102%
- Enzyme activity (%) [1, 5]: 105%

SMILES: [Cl][Mn][Cl] [MnCl2]
- Enzyme activity (%) [1, 4]: 89%
- Enzyme activity (%) [1, 5]: 76%
- Reduction of the enzyme activity (in words) ([1]; concentration of 10 mM): reduction of the enzyme activity

SMILES: CC=O [Acetaldehyde]
- Enzyme activity (%) [1, 4]: 83%
- Enzyme activity (%) [1, 5]: 81%

SMILES: [Cl][Cu][Cl] [CuCl2]
- Enzyme activity (%) [1, 4]: 70%
- Enzyme activity (%) [1, 5]: 54%

SMILES: CC(C)CC(=O)C(=O)O [α-ketoisocaproic acid]
- Enzyme activity (%) [1, 4]: 92%
- Enzyme activity (%) [1, 5]: 90%

SMILES: O=C(O)c1cc(SSc2ccc([N+](=O)[O-])c(C(=O)O)c2)ccc1[N+](=O)[O-] [Dinitrodithiodibenzoic acid]
- Enzyme activity (%) [1, 4]: 34%

SMILES: CC(C)C[C@@H](N)C(N)=O [D-leucine amide]
- Activity (mU/mg) [2]: 81 mU/mg
- Activity (mU/ml) [2]: 170 mU/ml
- OD660 [3]: 0.8

SMILES: [Cl][Fe]([Cl])[Cl] [FeCl3]
- Enzyme activity (%) [1, 4]: 87%
- Enzyme activity (%) [1, 5]: 46%

SMILES: [Cl-].[Cl-].[Mg+2] [MgCl2]
- Enzyme activity (%) [1, 4]: 96%
- Enzyme activity (%) [1, 5]: 88%

SMILES: O=[N+]([O-])[O-].[Ag+] [AgNO3]
- Enzyme activity (%) [1, 4]: 65%

SMILES: C[N+](C)(C)C[C@H](O)CC(=O)[O-] [L-carnitine, 3-hydroxy-4-trimethylaminobutyrate]
- Induction of L-carnitine amidase (in words) [2]: induced; also recorded: Inductors

SMILES: Cl.N=C(N)c1ccc(N)cc1 [Para-amino benzamidine hydrochloride]
- Enzyme activity (%) [1, 4]: 88%
- Enzyme activity (%) [1, 5]: 99%

SMILES: [Cl-].[Cl-].[Co+2] [CoCl2]
- Enzyme activity (%) [1, 4]: 90%
- Enzyme activity (%) [1, 5]: 76%
- Reduction of the enzyme activity (in words) ([1]; concentration of 10 mM): reduction of the enzyme activity

SMILES: [Cl][Hg][Cl] [HnCl2]
- Enzyme activity (%) [1, 4]: < 1%

SMILES: O=C(O)CN(CCN(CC(=O)O)CC(=O)O)CC(=O)O [Titriplex III (EDTA)]
- Enzyme activity (%) [1]: 93% and 73%
- Reduction of the enzyme activity (in words) [1]: reduction of the enzyme activity

SMILES: [Cl-].[Cl-].[Zn+2] [ZnCl2]
- Enzyme activity (%) [1, 4]: 6%

SMILES: N[C@@H](CCC(=O)N[C@@H](CS)C(=O)NCC(=O)O)C(=O)O [Red. glutathione]
- Enzyme activity (%) [1]: 97% and 92%
- Reduction of the enzyme activity (in words) [1]: reduction of the enzyme activity
